ChEMBL document CHEMBL1201862, “PubChem BioAssay data set” (2004)
Calls of active or inactive are those of the source.

Key:
[1] = biological target: Galanin receptor type 2 (Homo sapiens, UniProt O43603); assay: Dose Response cell-based high-throughput screening assay to identify antagonists of galanin receptor 2 (GALR2). [Related pubchem assays: 828, 866 ]; assay type: functional
[2] = system: Jurkat; assay: blockers of NF-kB activation in T cells – Jurkat, luciferase reporter, luminescence, B- and T-cell, dose response (AID 489004); assay type: functional, cell-based; settings: Homo sapiens;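 note: NF-kB luciferase reporter Jurkat cells stimulated with PMA plus ionomycin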
[3] = HEK-293T viability loss, compound-treated – cell-based, uHTS hits, cytotoxicity control for B/T-cell NF-kB inhibitor project, dose response (AID 489019); assay type: functional;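 note: IC50 reflects cytotoxicity as loss of cell viability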
[4] = system: INS1; assay: INS-1E survival protection against cytokine death – cell-based, luminescence, retest, dose response (AID 449756); assay type: functional; settings: Rattus norvegicus;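 note: cell death triggered by IL-1 beta plus TNF-alpha plus IFN-gamma mixture; protective hits raise ATP signal compared with cytokine alone wells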
[5] = reduction of Shn3 3'UTR-driven luciferase in osteoblasts – cell-based, Clone20 osteoblasts, firefly luciferase, cherry-picked, dose response (AID 624132); assay type: functional;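 note: firefly luciferase luminescence from reporter carrying the Shn3 3'UTR in osteoblasts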
[6] = loss of viability in HepG2 cells – cell-based, CellTiter-Glo, cherry-picked, cytotoxicity control for Shn3 inhibitor project, dose response (AID 624134); assay type: functional
[7] = non-specific 3'UTR reporter inhibition in Clone20-Shn3RL – cell-based, Renilla luciferase, cherry-picked, counter-screen for Shn3 inhibitor project, dose response (AID 624133); assay type: functional
[8] = biological target: Galanin receptor type 3 (Homo sapiens, UniProt O60755); assay: Fluorescence-based cell-based primary high throughput dose response assay to identify antagonists of the Galanin Receptor 3 (GalR3).; assay type: functional
[9] = cells; assay type: functional, cell-based; settings: HEK-CNG
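Throughout, for EC50: target is galanin receptor GalR3 read with a cAMP biosensor in HEK293 cells.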

Sequence of Galanin receptor type 3 (O60755 whole entry): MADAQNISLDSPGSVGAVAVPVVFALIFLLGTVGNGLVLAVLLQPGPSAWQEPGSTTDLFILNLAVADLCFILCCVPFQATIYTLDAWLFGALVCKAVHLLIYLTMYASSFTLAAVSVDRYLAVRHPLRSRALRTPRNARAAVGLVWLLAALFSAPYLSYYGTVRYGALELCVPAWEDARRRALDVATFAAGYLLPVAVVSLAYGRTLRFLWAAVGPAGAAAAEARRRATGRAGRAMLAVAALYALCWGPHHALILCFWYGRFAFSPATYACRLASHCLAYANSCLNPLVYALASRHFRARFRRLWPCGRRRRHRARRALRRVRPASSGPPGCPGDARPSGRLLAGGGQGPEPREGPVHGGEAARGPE
Sequence of Galanin receptor type 2 (O43603 whole entry): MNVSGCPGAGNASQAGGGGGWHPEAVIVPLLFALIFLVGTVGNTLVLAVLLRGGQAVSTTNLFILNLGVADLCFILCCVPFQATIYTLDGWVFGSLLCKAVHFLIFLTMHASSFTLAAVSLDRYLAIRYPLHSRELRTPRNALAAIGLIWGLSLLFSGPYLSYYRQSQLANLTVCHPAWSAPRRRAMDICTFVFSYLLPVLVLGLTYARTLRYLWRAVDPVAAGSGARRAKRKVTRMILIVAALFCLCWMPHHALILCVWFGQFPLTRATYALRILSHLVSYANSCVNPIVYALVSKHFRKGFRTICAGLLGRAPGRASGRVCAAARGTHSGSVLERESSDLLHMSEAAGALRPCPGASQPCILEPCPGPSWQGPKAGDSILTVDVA

With COc1ccc(CCNc2c(C)c(C)nc3ncnn23)cc1 the IC50 [1] was > 42 µM (not active), the IC50 [2] was > 80 µM (inactive) and the IC50 [3] was > 80 µM (inactive). For the same molecule, the AC50 [4] was 2.57 µM (active), the AC50 [5] was 0.565 µM (active) and the AC50 [6] was 25.6 µM (active). The AC50 [7] was < 0.26 µM (active), the IC50 [8] was 1.31 µM (active) and the EC50 [9] was > 29.9 µM (inactive).
